Test results reported in PubChem BioAssay AID1963437 (Molecular Pharmacology Branch, DTP, NCI, 2024).
“And” between values parts separate entries of the source, which are not always exact repeats. Equal entries are not always repeated. Each block holds one compound with its values, some of them ahead of it.

Tested on: OVCAR-8 complex spheroid, growth inhibition
Test: Anticancer human tumor OVCAR-8 cell line growth inhibition [Asc];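 further: spheroids exposed to agents for 7 days before readout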;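 on viability, T/C: percent viability relative to DMSO vehicle wells taken as 100%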
Conditions: for viability, T/C: stronger effect = lower value
Summary of the method: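 Concentration series start at each agent's clinical Cmax, or at 10 microM when none is established, and drop in half-log steps; agents are applied alone or together to complex spheroids built with HUVEC and hMSC.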

IC50 (curve of first compound, second compound 0.00316 µM): 1.63 µM | IC50 (curve of first compound, second compound 0.01 µM): 1.72 µM | IC50 (curve of first compound, second compound 0.0316 µM): 1.6 µM | IC50 (curve of first compound, second compound 0.1 µM): 0.958 µM | IC50 (curve of first compound, second compound 0.316 µM): 0.756 µM | IC50 (curve of first compound, second compound 1 µM): 0.639 µM
Structure (SMILES): C=C(F)C(=O)N1CCN(c2nc(OCC3CCCN3C)nc3c2CCN(c2cccc4cccc(Cl)c24)C3)CC1CC#N (stereo unspecified) + CNC(C)C(=O)NC1CN(S(=O)(=O)c2cccc(S(=O)(=O)N3CCC4CCC(C(=O)NC(c5ccccc5)c5ccccc5)N4C(=O)C(NC(=O)C(C)NC)C3)c2)CCC2CCC(C(=O)NC(c3ccccc3)c3ccccc3)N2C1=O
viability, T/C (second compound 0.00316 µM, first compound 0.0316 µM): 114% | viability, T/C (second compound 0.00316 µM, first compound 0.1 µM): 103% | viability, T/C (second compound 0.00316 µM, first compound 0.316 µM): 107% | viability, T/C (second compound 0.00316 µM, first compound 1 µM): 83.1% | viability, T/C (second compound 0.00316 µM, first compound 3.16 µM): 4.81% | viability, T/C (second compound 0.00316 µM, first compound 10 µM): 0.78% | viability, T/C (second compound 0.01 µM, first compound 0.0316 µM): 98.7% | viability, T/C (second compound 0.01 µM, first compound 0.1 µM): 94.6% | viability, T/C (second compound 0.01 µM, first compound 0.316 µM): 96% | viability, T/C (second compound 0.01 µM, first compound 1 µM): 91.2% | viability, T/C (second compound 0.01 µM, first compound 3.16 µM): 4.17% | viability, T/C (second compound 0.01 µM, first compound 10 µM): 0.22% | viability, T/C (second compound 0.0316 µM, first compound 0.0316 µM): 97.8% | viability, T/C (second compound 0.0316 µM, first compound 0.1 µM): 94.1% | viability, T/C (second compound 0.0316 µM, first compound 0.316 µM): 96.1% | viability, T/C (second compound 0.0316 µM, first compound 1 µM): 81.9% | viability, T/C (second compound 0.0316 µM, first compound 3.16 µM): 3.55% | viability, T/C (second compound 0.0316 µM, first compound 10 µM): 0.26% | viability, T/C (second compound 0.1 µM, first compound 0.0316 µM): 83.1% | viability, T/C (second compound 0.1 µM, first compound 0.1 µM): 100% | viability, T/C (second compound 0.1 µM, first compound 0.316 µM): 95.7% | viability, T/C (second compound 0.1 µM, first compound 1 µM): 48.3% | viability, T/C (second compound 0.1 µM, first compound 3.16 µM): 3.72% | viability, T/C (second compound 0.1 µM, first compound 10 µM): 0.27% | viability, T/C (second compound 0.316 µM, first compound 0.0316 µM): 90% | viability, T/C (second compound 0.316 µM, first compound 0.1 µM): 89.9% | viability, T/C (second compound 0.316 µM, first compound 0.316 µM): 106% | viability, T/C (second compound 0.316 µM, first compound 1 µM): 35.4% | viability, T/C (second compound 0.316 µM, first compound 3.16 µM): 3.15% | viability, T/C (second compound 0.316 µM, first compound 10 µM): 0.66% | viability, T/C (second compound 1 µM, first compound 0.0316 µM): 78% | viability, T/C (second compound 1 µM, first compound 0.1 µM): 90.7% | viability, T/C (second compound 1 µM, first compound 0.316 µM): 97.1% | viability, T/C (second compound 1 µM, first compound 1 µM): 25.4% | viability, T/C (second compound 1 µM, first compound 3.16 µM): 2.44% | viability, T/C (second compound 1 µM, first compound 10 µM): 0.35%

IC50 (curve of first compound, second compound 0.00949 µM): > 10 µM | IC50 (curve of first compound, second compound 0.03 µM): > 10 µM | IC50 (curve of first compound, second compound 0.0949 µM): > 10 µM | IC50 (curve of first compound, second compound 0.3 µM): > 10 µM | IC50 (curve of first compound, second compound 0.949 µM): > 10 µM | IC50 (curve of first compound, second compound 3 µM): > 10 µM
Structure (SMILES): C#Cc1c(F)ccc2cc(O)cc(-c3ncc4c(N5CC6CCC(C5)N6)nc(OCC56CCCN5CC(F)C6)nc4c3F)c12 (stereo unspecified) + CCN1C(C(=O)NC23CCC(C(=O)O)(CC2)CC3)C(c2cccc(Cl)c2F)C2(C(=O)Nc3cc(Cl)ccc32)C12CCCCC2
viability, T/C (second compound 0.00949 µM, first compound 0.0316 µM): 91.7% | viability, T/C (second compound 0.00949 µM, first compound 0.1 µM): 86.9% | viability, T/C (second compound 0.00949 µM, first compound 0.316 µM): 93.3% | viability, T/C (second compound 0.00949 µM, first compound 1 µM): 95.2% | viability, T/C (second compound 0.00949 µM, first compound 3.16 µM): 95.5% | viability, T/C (second compound 0.00949 µM, first compound 10 µM): 89.3% | viability, T/C (second compound 0.03 µM, first compound 0.0316 µM): 114% | viability, T/C (second compound 0.03 µM, first compound 0.1 µM): 96.3% | viability, T/C (second compound 0.03 µM, first compound 0.316 µM): 85.1% | viability, T/C (second compound 0.03 µM, first compound 1 µM): 97.3% | viability, T/C (second compound 0.03 µM, first compound 3.16 µM): 90.1% | viability, T/C (second compound 0.03 µM, first compound 10 µM): 91.5% | viability, T/C (second compound 0.0949 µM, first compound 0.0316 µM): 93.2% | viability, T/C (second compound 0.0949 µM, first compound 0.1 µM): 82.2% | viability, T/C (second compound 0.0949 µM, first compound 0.316 µM): 94.4% | viability, T/C (second compound 0.0949 µM, first compound 1 µM): 84% | viability, T/C (second compound 0.0949 µM, first compound 3.16 µM): 101% | viability, T/C (second compound 0.0949 µM, first compound 10 µM): 101% | viability, T/C (second compound 0.3 µM, first compound 0.0316 µM): 79.5% | viability, T/C (second compound 0.3 µM, first compound 0.1 µM): 86.8% | viability, T/C (second compound 0.3 µM, first compound 0.316 µM): 84.2% | viability, T/C (second compound 0.3 µM, first compound 1 µM): 91.7% | viability, T/C (second compound 0.3 µM, first compound 3.16 µM): 96.5% | viability, T/C (second compound 0.3 µM, first compound 10 µM): 98.2% | viability, T/C (second compound 0.949 µM, first compound 0.0316 µM): 93.5% | viability, T/C (second compound 0.949 µM, first compound 0.1 µM): 107% | viability, T/C (second compound 0.949 µM, first compound 0.316 µM): 90.8% | viability, T/C (second compound 0.949 µM, first compound 1 µM): 92.3% | viability, T/C (second compound 0.949 µM, first compound 3.16 µM): 103% | viability, T/C (second compound 0.949 µM, first compound 10 µM): 107% | viability, T/C (second compound 3 µM, first compound 0.0316 µM): 108% | viability, T/C (second compound 3 µM, first compound 0.1 µM): 93% | viability, T/C (second compound 3 µM, first compound 0.316 µM): 105% | viability, T/C (second compound 3 µM, first compound 1 µM): 115% | viability, T/C (second compound 3 µM, first compound 3.16 µM): 110% | viability, T/C (second compound 3 µM, first compound 10 µM): 112%

IC50 (curve of compound): > 1 µM
Structure (SMILES): CCN1CCN(Cc2ccc(Nc3ncc(F)c(-c4cc(F)c5nc(C)n(C(C)C)c5c4)n3)nc2)CC1
viability, T/C (compound 0.00316 µM): 81.5% and 87.7% and 87.9% | viability, T/C (compound 0.01 µM): 101% and 93.5% and 90.3% | viability, T/C (compound 0.0316 µM): 93.1% and 93.5% and 107% | viability, T/C (compound 0.1 µM): 104% and 84.9% and 103% | viability, T/C (compound 0.316 µM): 98.6% and 100% and 98.5% | viability, T/C (compound 1 µM): 125% and 105% and 129%
